Results from PubChem BioAssay AID330 (DTP/NCI, 2004).
Several values for one entry are separate records, joined by “and”; a condition that tells them apart may be missing. Equal entries are not always repeated. Inconclusive results and toxic doses are left out. How the source made its calls: active means survival T/C of 150% or more; inactive means T/C below 125% in these data.

Test system: P388 leukemia ip, CD2F1 mice, survival T/C
Assay: NCI In Vivo Anticancer Drug Screen. Data for tumor model P388 Leukemia (intraperitoneal) in CD2F1 (CDF1) mice
Conditions: endpoint: median survival time, higher = longer survival
Outline: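 Mice carrying the transplanted tumor received test compound or vehicle. Survival was recorded in each group, and the value is the treated-group measurement divided by that of the vehicle-treated control group.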

[1] = dose: 50.0 mg/kg/injection, schedule: Q01DX009 (ip), vehicle: saline
[2] = dose: 100.0 mg/kg/injection, schedule: Q01DX009 (ip), vehicle: saline
[3] = dose: 200.0 mg/kg/injection, schedule: Q01DX009 (ip), vehicle: saline
[4] = dose: 50.0 mg/kg/injection, schedule: Q01DX009 (ip), vehicle: saline with Tween-80
[5] = dose: 200.0 mg/kg/injection, schedule: Q01DX009 (ip), vehicle: saline with Tween-80
[6] = dose: 25.0 mg/kg/injection, schedule: Q01DX009 (ip), vehicle: saline
[7] = dose: 50.0 mg/kg/injection, schedule: Q01DX005 (ip), vehicle: saline with Tween-80
[8] = dose: 100.0 mg/kg/injection, schedule: Q01DX005 (ip), vehicle: saline with Tween-80
[9] = dose: 200.0 mg/kg/injection, schedule: Q01DX005 (ip), vehicle: saline with Tween-80

Measured: T/C

O=C(O)C1CSC2(CCCN(Cc3ccccc3)C2)N1 (stereo unspecified)
inactive: [1] 96 % of control | [2] 106 % of control | [3] 113 % of control

COC(=O)c1cc(-c2ccc(C)cc2)[nH]c(=O)c1C#N
inactive: dose: 60.0 mg/kg/injection, schedule: Q01DX005 (ip), vehicle: saline 103 % of control | dose: 120.0 mg/kg/injection, schedule: Q01DX005 (ip), vehicle: saline 100 % of control | dose: 240.0 mg/kg/injection, schedule: Q01DX005 (ip), vehicle: saline 108 % of control

Clc1ccccc1C=Nc1ccccc1
inactive: [4] 121 % of control

COc1ccc(C2=NC(c3ccccc3)N3C(c4ccccc4)NC(c4ccccc4)C2C3c2ccccc2)cc1 (stereo unspecified)
inactive: dose: 12.5 mg/kg/injection, schedule: Q01DX009 (ip), vehicle: saline with Tween-80 100 % of control | dose: 25.0 mg/kg/injection, schedule: Q01DX009 (ip), vehicle: saline with Tween-80 90 % of control | [4] 90 % of control and 93 % of control | [5] 91 % of control

CCN(C/C=C/CN(CC)C(=S)Nc1ccccc1)C(=S)Nc1ccccc1
inactive: [1] 106 % of control | [2] 108 % of control | [3] 106 % of control

COc1cc(CC2C(=O)OCC2Cc2cc(OC)c3c(c2)C(CO)C(c2ccc(O)c(OC)c2)O3)ccc1O (stereo unspecified)
inactive: dose: 5.0 mg/kg/injection, schedule: Q01DX009 (ip), vehicle: saline with Tween-80 102 % of control | dose: 10.0 mg/kg/injection, schedule: Q01DX009 (ip), vehicle: saline with Tween-80 118 % of control | dose: 20.0 mg/kg/injection, schedule: Q01DX009 (ip), vehicle: saline with Tween-80 101 % of control | dose: 40.0 mg/kg/injection, schedule: Q01DX009 (ip), vehicle: saline with Tween-80 108 % of control

COc1ccc2c(c1)[C@@]13CCCCC1[C@@H](C2)NCC3 (stereo partly specified)
inactive: dose: 100.0 mg/kg/injection, schedule: Q04DX002 (ip), vehicle: Klucel (hydroxypropylcellulose) (HPC) 101 % of control

COC(=O)C1(CC(=O)c2cccc3ccccc23)NC(=S)NC(=O)C1C#N (stereo unspecified)
inactive: dose: 60.0 mg/kg/injection, schedule: Q01DX005 (ip), vehicle: saline with Tween-80 101 % of control | dose: 120.0 mg/kg/injection, schedule: Q01DX005 (ip), vehicle: saline with Tween-80 101 % of control | dose: 240.0 mg/kg/injection, schedule: Q01DX005 (ip), vehicle: saline with Tween-80 102 % of control

CCOC(=O)Nc1cc(NC(=O)OCC)cc([N+](=O)[O-])c1
inactive: dose: 100.0 mg/kg/injection, schedule: Q04DX003 (ip), vehicle: saline with Tween-80 100 % of control | dose: 200.0 mg/kg/injection, schedule: Q04DX003 (ip), vehicle: saline with Tween-80 104 % of control | dose: 400.0 mg/kg/injection, schedule: Q04DX003 (ip), vehicle: saline with Tween-80 90 % of control

CC1OC1C(=O)Sc1ccccc1 (stereo unspecified)
inactive: dose: 12.5 mg/kg/injection, schedule: Q01DX009 (ip), vehicle: saline 105 % of control | [6] 110 % of control | [1] 106 % of control

CC(C)(C)C(=O)Nc1c(Cl)cc(Br)cc1Br
inactive: dose: 50.0 mg/kg/injection, schedule: Q01DX009 (ip), vehicle: saline + alcohol 105 % of control | dose: 100.0 mg/kg/injection, schedule: Q01DX009 (ip), vehicle: saline + alcohol 101 % of control | dose: 200.0 mg/kg/injection, schedule: Q01DX009 (ip), vehicle: saline + alcohol 100 % of control

CCN(CC)CCN1C=CC(=C2C(=O)c3ccccc3C2=O)C=C1
inactive: dose: 60.0 mg/kg/injection, schedule: Q01DX005 (ip), vehicle: Klucel (hydroxypropylcellulose) (HPC) 99 % of control | dose: 120.0 mg/kg/injection, schedule: Q01DX005 (ip), vehicle: Klucel (hydroxypropylcellulose) (HPC) 101 % of control | dose: 240.0 mg/kg/injection, schedule: Q01DX005 (ip), vehicle: Klucel (hydroxypropylcellulose) (HPC) 99 % of control

CCc1nc(N)nc(N)c1-c1ccc(N2CCCCC2)cc1
inactive: dose: 7.5 mg/kg/injection, schedule: Q01DX005 (ip), vehicle: saline with Tween-80 112 % of control | dose: 15.0 mg/kg/injection, schedule: Q01DX005 (ip), vehicle: saline with Tween-80 100 % of control | dose: 30.0 mg/kg/injection, schedule: Q01DX005 (ip), vehicle: saline with Tween-80 99 % of control

COC(=O)C1=C2\c3cc4c(cc3CCN2C(=O)c2ccc(OC)c(OC)c2/C(OC)=C\1)OCO4
inactive: [7] 93 % of control | [8] 90 % of control | [9] 90 % of control

C/C=C1/CN(C)C2Cc3c([nH]c4ccccc34)C(c3cc4[nH]c5c(c4cc3OC)CCN3CC4CC(CC)C3C5(COC(=O)c3ccc(OC)c(OC)c3)C4)CC1C2C(=O)OC (stereo unspecified)
inactive: dose: 6.25 mg/kg/injection, schedule: Q01DX001 (ip), vehicle: Klucel (hydroxypropylcellulose) (HPC) 107 % of control | dose: 12.5 mg/kg/injection, schedule: Q01DX001 (ip), vehicle: Klucel (hydroxypropylcellulose) (HPC) 106 % of control | dose: 25.0 mg/kg/injection, schedule: Q01DX001 (ip), vehicle: Klucel (hydroxypropylcellulose) (HPC) 106 % of control and 113 % of control | dose: 50.0 mg/kg/injection, schedule: Q01DX001 (ip), vehicle: Klucel (hydroxypropylcellulose) (HPC) 104 % of control | dose: 100.0 mg/kg/injection, schedule: Q01DX001 (ip), vehicle: Klucel (hydroxypropylcellulose) (HPC) 100 % of control | dose: 200.0 mg/kg/injection, schedule: Q01DX001 (ip), vehicle: Klucel (hydroxypropylcellulose) (HPC) 100 % of control

CC(NNC(=S)N(C)C1CCCCC1)c1nccc2ccccc12 (stereo unspecified)
inactive: dose: 30.12 mg/kg/injection, schedule: Q01DX001 (ip), vehicle: Klucel (hydroxypropylcellulose) (HPC) 101 % of control and 102 % of control | dose: 60.25 mg/kg/injection, schedule: Q01DX001 (ip), vehicle: Klucel (hydroxypropylcellulose) (HPC) 103 % of control and 107 % of control and 108 % of control | dose: 120.5 mg/kg/injection, schedule: Q01DX001 (ip), vehicle: Klucel (hydroxypropylcellulose) (HPC) 114 % of control and 115 % of control | dose: 241.0 mg/kg/injection, schedule: Q01DX001 (ip), vehicle: Klucel (hydroxypropylcellulose) (HPC) 108 % of control and 113 % of control

O=C(NCCCCCCCCCCNC(=O)C12CC3CC(CC(C3)C1)C2)C12CC3CC(CC(C3)C1)C2
inactive: dose: 12.5 mg/kg/injection, schedule: Q01DX005 (ip), vehicle: saline with Tween-80 98 % of control | dose: 25.0 mg/kg/injection, schedule: Q01DX005 (ip), vehicle: saline with Tween-80 96 % of control | [7] 86 % of control and 91 % of control

COC(=O)c1ccc(N=NN(C)C)cc1
inactive: [6] 100 % of control and 97 % of control | dose: 25.0 mg/kg/injection, schedule: Q01DX009 (ip), vehicle: suspension in saline 103 % of control | [1] 113 % of control and 92 % of control | dose: 50.0 mg/kg/injection, schedule: Q01DX009 (ip), vehicle: suspension in saline 91 % of control | [2] 103 % of control and 94 % of control | [3] 108 % of control | dose: 200.0 mg/kg/injection, schedule: Q01DX009 (ip), vehicle: suspension in saline 101 % of control

CC1=NN(c2cc(S(=O)(=O)O)ccc2Cl)C(=O)C1N=Nc1ccccc1 (stereo unspecified)
inactive: [1] 105 % of control | [2] 89 % of control

Nc1ccc(N=Nc2cccc3c2Oc2ccccc2O3)c(N)n1
inactive: [7] 98 % of control | [8] 91 % of control | [9] 105 % of control

CCCNc1nc(C)nc2[nH]c(Cc3ccccc3)c(C)c12
inactive: dose: 50.0 mg/kg/injection, schedule: Q01DX005 (ip), vehicle: Klucel (hydroxypropylcellulose) (HPC) 97 % of control | dose: 100.0 mg/kg/injection, schedule: Q01DX005 (ip), vehicle: Klucel (hydroxypropylcellulose) (HPC) 100 % of control | dose: 200.0 mg/kg/injection, schedule: Q01DX005 (ip), vehicle: Klucel (hydroxypropylcellulose) (HPC) 100 % of control

O=C(CC(=NCCN=C(CC(=O)c1ccccc1)c1ccccc1)c1ccccc1)c1ccccc1
inactive: [4] 112 % of control | dose: 100.0 mg/kg/injection, schedule: Q01DX009 (ip), vehicle: saline with Tween-80 100 % of control | [5] 100 % of control
